SMILES strings stand for the structures. pEC50, pIC50: −log10 of the molar value.

These results are taken from ChEMBL document CHEMBL5137028, “Progress and Challenges in Targeting the SARS-CoV-2 Papain-like Protease” (J Med Chem, 2022).

Data set [1] can be described thus: Stability in human liver S9 fraction assessed as half life. The format is ADME, subcellular.
A short description of data set [2]: Stability in human liver microsome assessed as half life. The format is ADME. The conditions noted are these: liver microsomes.
Data set [3] in a line: Cytotoxicity against African green monkey Vero E6 cells assessed as cell viability treated for 24 to 48 hrs by prestoblue staining based assay. Format: toxicity, Vero C1008. The conditions noted are these: chlorocebus sabaeus, time 24-48 hrs.
Data set [4] can be described thus: Cytotoxicity against African green monkey Vero E6 cells assessed as cell viability treated for 24 hrs by CCK8 assay. The format is toxicity, cell-based, Vero C1008. The conditions noted are these: chlorocebus sabaeus.
Data set [5] concerns SARS-CoV-2. The data set is described as follows: Antiviral activity against SARS-CoV-2 infected in African green monkey Vero cells assessed as viral growth inhibition by cell culture based assay. The conditions noted are these: Severe acute respiratory syndrome coronavirus 2, Vero. Format: functional, organism-based.
Data set [6] concerns the target Replicase polyprotein 1ab (Severe acute respiratory syndrome coronavirus 2) (UniProt P0DTD1). Nature of the data set: Inhibition of SARS-CoV-2 papain-like protease nsp3 (745 to 1061 residues) expressed in Escherichia coli.
Data set [7] in a line: Cytotoxicity against African green monkey Vero E6 cells assessed as cell viability. Conditions: chlorocebus sabaeus. The format is toxicity, cell-based, Vero C1008.
The subject of data set [8] is SARS-CoV-2. Nature of the data set: Antiviral activity against SARS-CoV-2 infected in human HeLa cells expressing hACE2 assessed as inhibition of viral replication at MOI of 0.3 treated for 46 hrs by fluorescence microscopy. The format is functional, organism-based. The conditions noted are these: Severe acute respiratory syndrome coronavirus 2, HeLa.
For data set [9], the system named is HeLa. Nature of the data set: Cytotoxicity against human HeLa cells expressing hACE2 assessed as cell viability treated for 72 hrs by Cell Titer Glo assay. Format: functional.
In data set [10] the test system is SARS-CoV-2. The data set is described as follows: Antiviral activity against SARS-CoV-2 infected in African green monkey Vero cells assessed as viral growth inhibition incubated for 1 hr by crystal violet staining based plaque reduction assay. Format: functional, organism-based. The conditions noted are these: Severe acute respiratory syndrome coronavirus 2, Vero. A general note: Plaque reduction counts the foci of infection that form in a cell layer.

Data set [11] relates to SARS-CoV-2. The data set is described as follows: Antiviral activity against SARS-CoV-2 USA-WA1/2020 infected in African green monkey Vero E6 cells assessed as viral growth inhibition pretreated for 1 hr followed by infection at MOI of 0.1 measured after 48 hrs by Cell Titer Glo assay. The format is functional, organism-based. Conditions: Severe acute respiratory syndrome coronavirus 2, USA-WA1/2020, Vero C1008. On the technique in general: Cellular ATP, detected with luciferase, serves as a proxy for viable cell number.

Data set [12] deals with SARS-CoV-2. The data set is described as follows: Antiviral activity against SARS-CoV-2 USA-WA1/2020 isolate infected in human Caco2 expressing hACE2 cells assessed as viral growth inhibition at MOI of 0.1 treated for 24 hrs by fluorescence microscopy. Format: functional, organism-based. The conditions noted are these: Severe acute respiratory syndrome coronavirus 2, USA-WA1/2020 isolate, Caco-2, 24 h.

Data set [13] has as its system SARS-CoV-2. The data set is described as follows: Antiviral activity against SARS-CoV-2 infected in African green monkey Vero cells assessed as viral growth inhibition measured after 72 hrs by LDH assay. The format is functional, organism-based. Conditions: Severe acute respiratory syndrome coronavirus 2, Vero.
Data set [14] in a line: Selectivity index, ratio of CC50 for African green monkey Vero cells to EC50 for SARS-CoV-2 infected in African green monkey Vero cells. The format is toxicity. Conditions: read-out: Ratio CC50/EC50.
A short description of data set [15]: Selectivity index, ratio of CC50 for human A549 cells expressing ACE2 to EC50 for SARS-CoV-2 infected in human A549 cells expressing ACE2. The format is toxicity, cell-based. The conditions noted are these: read-out: Ratio CC50/EC50.
Data set [16] relates to Middle East respiratory syndrome-related coronavirus. The data set is described as follows: Antiviral activity against MERS-CoV assessed as viral growth inhibition. The format is functional, organism-based.
Data set [17] has as its system SARS-CoV-2. Nature of the data set: Antiviral activity against SARS-CoV-2 infected in African green monkey Vero cells assessed as viral growth inhibition. Format: functional, organism-based. Conditions: Severe acute respiratory syndrome coronavirus 2, Vero.
Data set [18] concerns A549. The data set is described as follows: Cytotoxicity against human A549 cells expressing ACE2 assessed as cell viability. Format: functional.
Data set [19] in a line: Cytotoxicity against African green monkey Vero cells assessed as cell viability. Format: toxicity, cell-based. The conditions noted are these: chlorocebus sabaeus.
Data set [20] is described as follows: Antiviral activity against HCoV-OC43 assessed as viral growth inhibition. The format is functional, Human coronavirus OC43.
Data set [21] deals with SARS-CoV-2. Nature of the data set: Antiviral activity against SARS-CoV-2 infected in human A549 cells expressing ACE2 assessed as viral growth inhibition. The format is functional, organism-based. Conditions: Severe acute respiratory syndrome coronavirus 2, A549.

On to `COC(=O)/C=C/C(=O)NNC(=O)CCc1ccccc1C(=O)N[C@H](C)c1cccc2ccccc12`, for which the figures for the half-life in data set [1] and in [2] were 60 min and 50 min, respectively.

With `O=C1c2c(O)cccc2[C@@H]([C@@H]2O[C@H](CO)[C@@H](O)[C@H](O)[C@H]2O)c2cc(CO)cc(O)c21`, the CC50 in data set [3] was above 100 µM. Consider `C[C@H]1COC2=C1C(=O)C(=O)c1c2ccc2c1CCCC2(C)C` [CRYPTOTANSHINONE], for which the CC50 at 24 h in [4] is above 300 µM. The pEC50 in [5] was below 3.70. In data set [6], `COC(=O)/C=C/CNC(=O)CNC(=O)[C@H](CN)NC(=O)[C@H](CCc1ccc(O)cc1)NC(C)=O` displayed an INH of 100 µM.

For the compound `Cc1cc2nc3c(=O)[nH]c(=O)nc-3n(C)c2cc1C=O`, in data set [5], the pEC50 was 4.70.

Regarding `Cc1coc2c1C(=O)C(=O)c1c-2ccc2c(C)cccc12` [TANSHINONE I], in data set [4], the CC50 at 24 h was above 200 µM.

`COC(=O)/C=C/CNC(=O)CNC(=O)[C@H](CN)NC(=O)[C@H](CCc1nc2ccccc2s1)NC(C)=O`: in data set [6], the INH was 100 µM. As to `Nc1nc2nc[nH]c2c(=S)[nH]1` [THIOGUANINE], in data set [7], the CC50 amounted to 35.5 µM.

Turning to `Cc1cccc2c3c(ccc12)C1=C(C(=O)C3=O)[C@@H](C)CO1` [DIHYDROTANSHINONE I], the pEC50 in [5] was 5.09. As for `C[C@H](c1cccc2ccccc12)N1CCC(C(=O)NCc2cc(F)cc(NC(=O)N3CCN(C)CC3)c2)CC1`, in data set [8], the pEC50 is 6.74. Further, the CC50 in data set [9] is above 10 µM. Consider `Cc1ccc(N)cc1C(=O)N[C@H](C)c1cccc2ccccc12`, for which the pEC50 in [10] is 5.50; in [5], 4.49. For the compound `Cc1coc2c1C(=O)C(=O)c1c-2ccc2c1CCCC2(C)C` [TANSHINONE IIA], in data set [5], the pEC50 is below 3.70. Turning to `C[C@@H](NC(=O)c1ccccc1CCC(=O)NNC(=O)CCl)c1cccc2ccccc12`, the pEC50 in data set [11] is 4.47. Turning to `C[C@H](c1cccc2ccccc12)N(C)Cc1c[nH]c2ccccc12`, the negative-log EC50 (pEC50) in data set [12] is 4.92. Take `COc1cc(CNC(=O)C2CCN(C(C)c3cccc4ccccc34)CC2)ccn1` (stereo not drawn): in data set [13], the pEC50 is above 4.96.

As for `Nc1ccc2cc3ccc(N)cc3nc2c1` [PROFLAVINE], the selectivity ratio amounted to 53 in data set [14] and 36 in [15]. Besides, the pIC50 in [16] was 7.68; in data set [20], 6.98. Further, the pEC50 in data set [17] is 7.19; in data set [21], 7.07. Besides, the CC50 was found to be 3.1 µM in [18] and 3.4 µM in [19]. For the compound `O=C1c2c(O)cccc2[C@H]([C@@H]2O[C@H](CO)[C@@H](O)[C@H](O)[C@H]2O)c2cc(CO)cc(O)c21`, the CC50 in data set [3] is above 100 µM.

One may read the half-life as how long it takes for the measured level to halve. As a reminder, the CC50 is the concentration that lowers cell viability or growth by half. What is called pEC50 is the negative decadic logarithm of the EC50, by convention in mol/L. What is called pIC50 is the negative decadic logarithm of the IC50, by convention in mol/L.
